Like-named read-outs stand apart in the source and are kept apart here.
Assays:
[1] = system: MAP-positive and MAP-negative Crohn's disease patients (ELISA); test: comparison of age-matched MAP-positive and MAP-negative patients at 1 year (CDAI); type: in vivo, human
Text: Another study was undertaken to compare age-matched MAP-positive and -negative patients utilizing ELISA analysis forserum antibodies to MAP. 10 MAP-positive and 10 MAP-negative patients were compared at 1 year, utilizing the CDAI score as a primary endpoint. The elimination of corticosteroids and the need for immunotherapy were considered secondary endpoints. […] Steroids were eliminated in 8 of 10 patients, with 2 patients requiring low-dose steroids. In the MAP-negative group at 1 year, 6 of 10 patients were in complete remission, with an entry CDAI score of 308 and an exit score of 179. Of the responsive patients, 3 of 6 required additional immunotherapy, and 3 remained on antibiotics alone.

[2] = system: M. para. isolated from resected tissue of CD patients; test: in vitro test of seven antituberculosis drugs against M. para. using the Bactec system; type: cell-based, Mycobacterium paratuberculosis; settings: for MIC50 (50% M. para. cells inhibited or killed) / MIC99.9 (99.9% M. para. cells inhibited or killed): M. para. from resected tissue of CD patients

Compound	outcome in patients unresponsive to antibiotics [1]	Status (resistant/sensitive) ([2]; Bactec system)	MIC50 (50% M. para. cells inhibited or killed) ([2]; Bactec system) [µg/mL]	MIC99.9 (99.9% M. para. cells inhibited or killed) ([2]; Bactec system) [µg/mL]	Status (resistant/sensitive) [2]
infliximab	induction of remission in all patients	–	–	–	–
NNC(=O)c1ccncc1 [INH, isoniazid]	–	R	>20	>20	–
NC[C@H]1O[C@H](O[C@H]2[C@H](O)[C@@H](O[C@H]3O[C@H](CO)[C@@H](O)[C@H](N)[C@H]3O)[C@H](N)C[C@@H]2N)[C@H](O)[C@@H](O)[C@@H]1O [KM, kanamycin]	–	R	<1.3	<3.0	–
CC[C@H]1OC(=O)[C@H](C)[C@@H](O[C@H]2C[C@@](C)(OC)[C@@H](O)[C@H](C)O2)[C@H](C)[C@@H](O[C@@H]2O[C@H](C)C[C@H](N(C)C)[C@H]2O)[C@](C)(OC)C[C@@H](C)C(=O)[C@H](C)[C@@H](O)[C@]1(C)O [CLR, clarithromycin]	–	–	<0.25	<1.25	S
[H]/N=C(/N)N[C@H]1[C@H](O)[C@@H](O)[C@H](O[C@@H]2O[C@@H](C)[C@](O)(C=O)[C@H]2O[C@@H]2O[C@@H](CO)[C@H](O)[C@@H](O)[C@@H]2NC)[C@@H](N/C(N)=N\[H])[C@@H]1O [ST, streptomycin]	–	R	>0.4	>3.0	–
CC[C@@H](CO)NCCN[C@@H](CC)CO [EMB, ethambutol]	–	S	<0.5	<3.0	–
CO[C@H]1/C=C/O[C@@]2(C)Oc3c(C)c(O)c4c(O)c(c(/C=N/N5CCN(C)CC5)c(O)c4c3C2=O)NC(=O)/C(C)=C\C=C\[C@H](C)[C@H](O)[C@@H](C)[C@@H](O)[C@@H](C)[C@H](OC(C)=O)[C@@H]1C [RIF, Rifampicin]	–	R	>1.0	>2.6	–
NC(=O)c1cnccn1 [PZA, pyrazinamide]	–	R	>20	>20	–

— US20020192201A1, “Crohn's disease treatment methods” (priority 1998, published 2002)
